# Values of other authors in US8198305B2, “1,2-benzisoxazol-3-yl compounds” (Concert Pharmaceuticals Inc., priority 2007, dated 2012).
# Like-named read-outs stand apart in the source and are kept apart here.
# Conditions: phase III clinical trial
smiles,measurement,setting,value
"COc1cc(C(C)=O)ccc1OCCCN1CCC(c2noc3cc(F)ccc23)CC1 [iloperidone, 1-[4-[3-[4-(6-fluoro-1,2-benzisoxazol-3-yl)piperidin-1-yl]propoxy]-3-methoxyphenyl]ethanone]",QTc prolongation,good metabolizers of iloperidone,10.4 ms
same,QTc prolongation,poor metabolizers of iloperidone,15.0 ms
